Data as given in ChEMBL document CHEMBL1125856, “The Interaction of Anhydroalditols with Sweet-Almond -glucosidase and Escherichia coli -galactosidase: implications for the design of potent glycosidase inhibitors” (Bioorg Med Chem Lett, 1991).

B1: Beta-glucosidase (Prunus avium), Q43014 (protein)
chain: LLLLGFALANTNAARTDPPVVCATLNRTNFDTLFPGFTFGTATASYQLEGAANIDGRGPSIWDAFTHNHPEKITDGSNGDVAIDQYHRYKEDVAIMKDMGLDAYRFSISWSRLLPNGTLSGGINKKGIEYYNNLTNELIRNGIEPLVTLFHWDVPQALEEEYGGVLSPRIVYDFKAYAELCYKEFGDRVKHWTTLNEPYTISNHGYTIGIHAPGRCSSWYDPTCLGGDSGTEPYLVTHNLLLAHAAAVKLYREKYQASQEGVIGITVVSHWFEPASESQKDINASVRALDFMYGWFMDPLTRGDYPQSMRSLVKERLPNFTEEQSKSLIGSYDYIGVNYYSARYASAYPEDYSIPTPPSYLTDAYVNVTTELNGVPIGPQAASDWLYVYPKGLYDLVLYTKNKYNDPIMYITENGMDEFNNPKISLEQALNDSNRIDYCYRHLCYLQEAIIEGANVQGYFAWSLLDNFEWSEGYTVRFGINYVDYDNGLKRHSKLSTHWFKNFLKRSSISKEKIRRCGNNNARARKFVYRI

Key:
Beta-galactosidase [1] = target: T1, Beta-galactosidase (Escherichia coli, UniProt Q8VNN2); assay: Compound was evaluated for its binding affinity towards Beta-galactosidase
[2] = Ratio of binding affinity towards E-coli beta - galactosidase to that of km/kcat was determined
[3] = Ratio of binding affinity towards E-coli beta - galactosidase to that of Michaelis-Menten constant against E-coli beta-galactosidase
Beta-galactosidase [4] = target: T1, Beta-galactosidase; assay: Compound was evaluated for its binding affinity towards E-coli Beta-galactosidase
[5] = target: T2, Beta-glucosidase (Prunus avium) (UniProt Q43014); assay: (§1) Kinetic parameter Km/Kcat against Beta-glucosidase; set-up: unit not given here; settings: Prunus dulcis
T2 sequence (whole entry): B1 chain

[6] = target: T2, Beta-glucosidase (Prunus avium); assay: as §1; settings: Prunus dulcis
[7] = substrate: OC[C@H]1OC[C@@H](O)[C@@H]1O; assay: (§2) Michaelis-Menten constant against sweet almond Beta-glucosidase
[8] = substrate: OC[C@H]1OC[C@@H](O)[C@H]1O; assay: as §2
[9] = substrate: OC[C@H]1OC[C@H](O)[C@@H](O)[C@@H]1O; assay: as §2
[10] = substrate: OC[C@H]1OC[C@H](O)[C@@H](O)[C@H]1O; assay: as §2
[11] = substrate: O[C@@H]1COC[C@H]1O; assay: as §2
[12] = substrate: O[C@H]1[C@H](O)COC[C@@H]1O; assay: as §2

T1 sequence (Q8VNN2 whole entry): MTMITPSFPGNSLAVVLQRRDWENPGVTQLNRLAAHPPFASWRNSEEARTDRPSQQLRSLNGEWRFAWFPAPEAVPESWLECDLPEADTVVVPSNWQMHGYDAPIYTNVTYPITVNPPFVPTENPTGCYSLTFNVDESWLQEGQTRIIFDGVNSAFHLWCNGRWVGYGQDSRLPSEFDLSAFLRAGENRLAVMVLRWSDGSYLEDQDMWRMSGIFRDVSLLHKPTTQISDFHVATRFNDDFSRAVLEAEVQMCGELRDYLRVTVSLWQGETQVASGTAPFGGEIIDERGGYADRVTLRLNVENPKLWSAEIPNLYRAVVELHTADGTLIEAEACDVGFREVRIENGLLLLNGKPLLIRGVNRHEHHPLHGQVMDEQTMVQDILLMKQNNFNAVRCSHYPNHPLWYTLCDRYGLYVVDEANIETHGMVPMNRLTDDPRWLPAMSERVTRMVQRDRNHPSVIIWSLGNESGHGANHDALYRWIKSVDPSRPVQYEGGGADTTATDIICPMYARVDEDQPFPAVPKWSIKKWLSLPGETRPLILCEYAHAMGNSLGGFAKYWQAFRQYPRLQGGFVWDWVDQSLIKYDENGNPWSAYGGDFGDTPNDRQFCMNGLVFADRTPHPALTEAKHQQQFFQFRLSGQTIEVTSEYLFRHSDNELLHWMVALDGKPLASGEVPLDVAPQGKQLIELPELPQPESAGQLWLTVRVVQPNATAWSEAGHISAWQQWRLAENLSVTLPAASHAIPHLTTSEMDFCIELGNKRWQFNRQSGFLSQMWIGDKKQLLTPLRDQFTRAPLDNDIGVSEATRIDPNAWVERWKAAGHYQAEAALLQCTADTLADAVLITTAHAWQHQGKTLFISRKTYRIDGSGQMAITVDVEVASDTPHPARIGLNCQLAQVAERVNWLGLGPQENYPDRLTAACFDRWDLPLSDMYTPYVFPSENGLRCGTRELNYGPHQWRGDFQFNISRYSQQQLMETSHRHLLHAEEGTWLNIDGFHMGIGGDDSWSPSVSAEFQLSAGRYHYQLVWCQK

| Molecule | Ki/(Km/Kcat) [2] | Ki/Km [3] | Ki (Beta-galactosidase [4]) | Km/Kcat [5] | further results |
| --- | --- | --- | --- | --- | --- |
| OC[C@H]1OC[C@@H](O)[C@@H]1O | 240 | 1.6 |  |  | Ki (Beta-galactosidase [1]): 51 mM |
| OC[C@H]1OC[C@@H](O)[C@H]1O | 1e+08 | 39.6 | 1.9 mM |  |  |
| OC[C@H]1OC[C@H](O)[C@@H](O)[C@@H]1O [1,5-Anhydrosorbitol] | 330 | 2.2 | 71 mM | 0.21 | Km/Kcat [6]: 0.019 |
| C[C@H]1OC[C@H](O)[C@@H](O)[C@H]1O | 630000 | 1.2 |  | 6.7e-05 |  |
| O[C@H]1[C@H](O)COC[C@@H]1O | 85 | 15.6 | 85 mM | 1 |  |
| O[C@@H]1COC[C@H]1O | 77 | 5.1 | 77 mM | 1 |  |
| OC[C@H]1OC[C@H](O)[C@@H](O)[C@H]1O | 3.9e+08 | 154 | 7.4 mM |  |  |
| B1 |  |  |  |  | Km [7]: 2.5 mM; Km [8]: 15.7 mM; Km [9]: 2.5 mM; Km [10]: 15.7 mM; Km [11]: 3.1 mM; Km [12]: 3.1 mM |
